Tests used:
[1] = target: ATP-binding cassette sub-family C member 3 (Homo sapiens, UniProt O15438); assay: Inhibition of human MRP3 overexpressed in Sf9 insect cell membrane vesicles assessed as uptake of [3H]-estradiol-17beta-D-glucuronide in presence of ATP and GSH measured after 10 mins by membrane vesicle transport assay; format: ADME, cell-based
Homo sapiens = assay: Drug concentration at steady state in human at 135 to 175 mg/m2, iv administered as infusion for 3 or 24 hrs measured after 1 hr; format: ADME, organism-based; details: in vivo
[2] = target: T1, ATP-binding cassette sub-family C member 4 (Homo sapiens, UniProt O15439); assay: Inhibition of human MRP4 overexpressed in Sf9 cell membrane vesicles assessed as uptake of [3H]-estradiol-17beta-D-glucuronide in presence of ATP and GSH measured after 20 mins by membrane vesicle transport assay; format: ADME, cell-based
T1 sequence (O15439 whole entry): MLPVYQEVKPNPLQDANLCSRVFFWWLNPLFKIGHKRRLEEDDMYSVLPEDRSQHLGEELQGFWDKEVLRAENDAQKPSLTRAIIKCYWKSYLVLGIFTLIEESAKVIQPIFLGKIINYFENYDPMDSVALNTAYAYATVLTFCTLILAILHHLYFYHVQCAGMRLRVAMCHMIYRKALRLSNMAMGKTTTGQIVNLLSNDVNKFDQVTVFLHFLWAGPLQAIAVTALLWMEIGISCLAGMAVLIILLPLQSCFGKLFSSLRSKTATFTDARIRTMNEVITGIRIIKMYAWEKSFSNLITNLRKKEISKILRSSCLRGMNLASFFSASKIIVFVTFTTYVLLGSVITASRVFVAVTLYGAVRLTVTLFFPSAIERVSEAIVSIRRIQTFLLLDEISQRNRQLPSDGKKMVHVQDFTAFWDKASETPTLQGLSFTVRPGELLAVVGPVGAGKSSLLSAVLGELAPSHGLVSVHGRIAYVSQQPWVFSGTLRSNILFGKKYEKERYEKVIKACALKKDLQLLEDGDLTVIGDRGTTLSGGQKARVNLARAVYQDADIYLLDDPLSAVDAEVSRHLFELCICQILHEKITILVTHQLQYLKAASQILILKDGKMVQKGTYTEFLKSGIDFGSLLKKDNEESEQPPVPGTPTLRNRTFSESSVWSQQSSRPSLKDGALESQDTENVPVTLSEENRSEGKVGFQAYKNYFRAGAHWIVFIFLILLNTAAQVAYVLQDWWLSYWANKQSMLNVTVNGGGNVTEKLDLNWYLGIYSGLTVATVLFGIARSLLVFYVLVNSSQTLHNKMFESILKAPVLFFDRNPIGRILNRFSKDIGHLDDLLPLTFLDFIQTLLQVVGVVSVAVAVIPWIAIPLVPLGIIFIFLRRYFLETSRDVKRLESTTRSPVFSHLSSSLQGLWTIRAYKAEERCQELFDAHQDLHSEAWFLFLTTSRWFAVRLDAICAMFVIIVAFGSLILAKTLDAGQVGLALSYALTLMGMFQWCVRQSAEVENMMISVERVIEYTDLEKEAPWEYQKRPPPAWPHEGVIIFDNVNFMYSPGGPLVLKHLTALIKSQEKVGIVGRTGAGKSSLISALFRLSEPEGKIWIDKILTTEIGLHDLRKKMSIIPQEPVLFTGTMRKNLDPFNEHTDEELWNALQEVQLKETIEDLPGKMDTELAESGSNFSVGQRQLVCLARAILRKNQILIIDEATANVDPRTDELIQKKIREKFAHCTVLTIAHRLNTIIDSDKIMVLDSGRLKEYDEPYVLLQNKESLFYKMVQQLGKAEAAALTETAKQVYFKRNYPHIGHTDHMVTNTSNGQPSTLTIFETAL

[3] = target: ATP-binding cassette sub-family C member 2 (Homo sapiens, UniProt Q92887); assay: Inhibition of human MRP2 overexpressed in Sf9 cell membrane vesicles assessed as uptake of [3H]-estradiol-17beta-D-glucuronide in presence of ATP and GSH measured after 20 mins by membrane vesicle transport assay
[4] = AUC in human at 135 to 175 mg/m2, iv administered as infusion for 3 or 24 hrs measured after 1 hr; format: ADME, organism-based; parameters: time < 1 hr, route intravenous; details: in vivo
clinical = details: human, in vivo, po
[5] = Drug concentration at steady state in human at 43 to 130 mg, po QD after 24 hrs; format: ADME, organism-based; details: in vivo, read-out: Css
Bile salt export pump = Bile salt export pump (Homo sapiens, UniProt O95342); assay: Inhibition of human BSEP overexpressed in Sf9 cell membrane vesicles assessed as uptake of [3H]-taurocholate in presence of ATP measured after 15 to 20 mins by membrane vesicle transport assay; format: ADME, cell-based
[6] = Drug concentration at steady state in human at 200 mg, po TID after 8 hrs; format: ADME, organism-based; details: in vivo, read-out: Css
[7] = AUC in human at 200 mg, po TID after 8 hrs; format: ADME, organism-based; parameters: time < 8 hr, dose 200 mg, route oral; details: in vivo
[8] = Ratio of drug concentration at steady state in human at 200 mg, po TID after 8 hrs to IC50 for human BSEP overexpressed in Sf9 insect cells; format: ADME, organism-based; details: in vivo
[9] = Drug concentration at steady state in human at 2 g, po QD after 24 hrs; format: ADME, organism-based; details: in vivo, read-out: Css
[10] = AUC in human at 2 g, po QD after 24 hrs; format: ADME, organism-based; parameters: dose 2 g, time < 24 hr, route oral; details: in vivo
[11] = Ratio of drug concentration at steady state in human at 2 g, po QD after 24 hrs to IC50 for human BSEP overexpressed in Sf9 insect cells; format: ADME, organism-based; details: in vivo
[12] = Ratio of drug concentration at steady state in human at 50 ug, sc BID/TID co-treated with 50 to 500 ug, sc TID of sandostatin LAR measured after 8 hrs to IC50 for human BSEP overexpressed in Sf9 insect cells; format: ADME, organism-based; details: in vivo
[13] = AUC in human at 50 ug, sc BID/TID co-treated with 50 to 500 ug, sc TID of sandostatin LAR measured after 8 hrs; format: ADME, organism-based; parameters: dose 50 ug, time < 8 hr, route subcutaneous; details: in vivo
[14] = Drug concentration at steady state in human at 50 ug, sc BID/TID co-treated with 50 to 500 ug, sc TID of sandostatin LAR measured after 8 hrs; format: ADME, organism-based; details: in vivo, read-out: Css

Bile salt export pump, sequence (O95342 whole entry): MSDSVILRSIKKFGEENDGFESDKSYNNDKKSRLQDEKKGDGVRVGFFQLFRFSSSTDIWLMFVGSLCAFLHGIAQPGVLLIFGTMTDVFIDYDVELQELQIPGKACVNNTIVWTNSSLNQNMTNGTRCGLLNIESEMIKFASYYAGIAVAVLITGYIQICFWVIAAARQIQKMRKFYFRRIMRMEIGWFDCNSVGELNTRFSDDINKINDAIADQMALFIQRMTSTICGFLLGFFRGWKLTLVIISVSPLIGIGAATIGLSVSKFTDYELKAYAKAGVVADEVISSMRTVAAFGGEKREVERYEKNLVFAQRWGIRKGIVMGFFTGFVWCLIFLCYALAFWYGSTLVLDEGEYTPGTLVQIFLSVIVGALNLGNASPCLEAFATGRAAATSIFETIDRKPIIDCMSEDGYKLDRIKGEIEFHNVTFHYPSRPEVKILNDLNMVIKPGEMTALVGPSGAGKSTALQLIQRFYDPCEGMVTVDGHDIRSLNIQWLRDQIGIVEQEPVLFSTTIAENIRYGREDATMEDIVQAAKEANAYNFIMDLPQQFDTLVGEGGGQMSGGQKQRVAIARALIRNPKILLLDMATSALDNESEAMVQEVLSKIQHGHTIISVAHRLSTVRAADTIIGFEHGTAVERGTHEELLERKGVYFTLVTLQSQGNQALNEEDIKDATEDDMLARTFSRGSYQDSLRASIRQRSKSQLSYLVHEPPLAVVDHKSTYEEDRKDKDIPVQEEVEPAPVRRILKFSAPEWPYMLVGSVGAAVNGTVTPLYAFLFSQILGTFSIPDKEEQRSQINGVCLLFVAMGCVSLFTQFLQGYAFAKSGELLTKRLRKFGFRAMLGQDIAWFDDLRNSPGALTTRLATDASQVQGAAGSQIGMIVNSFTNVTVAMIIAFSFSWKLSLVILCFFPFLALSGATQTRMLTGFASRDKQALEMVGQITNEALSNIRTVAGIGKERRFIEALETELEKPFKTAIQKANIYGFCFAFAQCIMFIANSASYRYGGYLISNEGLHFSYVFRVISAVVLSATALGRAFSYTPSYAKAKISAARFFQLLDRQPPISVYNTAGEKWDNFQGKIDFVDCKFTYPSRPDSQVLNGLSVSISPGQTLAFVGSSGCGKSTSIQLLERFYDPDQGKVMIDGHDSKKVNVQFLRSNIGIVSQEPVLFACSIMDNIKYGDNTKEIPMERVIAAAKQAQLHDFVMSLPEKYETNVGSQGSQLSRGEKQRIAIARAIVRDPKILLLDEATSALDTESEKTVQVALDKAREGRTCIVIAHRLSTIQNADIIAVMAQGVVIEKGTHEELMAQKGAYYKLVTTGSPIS
ATP-binding cassette sub-family C member 2, sequence (Q92887 whole entry, the tested form may be a part): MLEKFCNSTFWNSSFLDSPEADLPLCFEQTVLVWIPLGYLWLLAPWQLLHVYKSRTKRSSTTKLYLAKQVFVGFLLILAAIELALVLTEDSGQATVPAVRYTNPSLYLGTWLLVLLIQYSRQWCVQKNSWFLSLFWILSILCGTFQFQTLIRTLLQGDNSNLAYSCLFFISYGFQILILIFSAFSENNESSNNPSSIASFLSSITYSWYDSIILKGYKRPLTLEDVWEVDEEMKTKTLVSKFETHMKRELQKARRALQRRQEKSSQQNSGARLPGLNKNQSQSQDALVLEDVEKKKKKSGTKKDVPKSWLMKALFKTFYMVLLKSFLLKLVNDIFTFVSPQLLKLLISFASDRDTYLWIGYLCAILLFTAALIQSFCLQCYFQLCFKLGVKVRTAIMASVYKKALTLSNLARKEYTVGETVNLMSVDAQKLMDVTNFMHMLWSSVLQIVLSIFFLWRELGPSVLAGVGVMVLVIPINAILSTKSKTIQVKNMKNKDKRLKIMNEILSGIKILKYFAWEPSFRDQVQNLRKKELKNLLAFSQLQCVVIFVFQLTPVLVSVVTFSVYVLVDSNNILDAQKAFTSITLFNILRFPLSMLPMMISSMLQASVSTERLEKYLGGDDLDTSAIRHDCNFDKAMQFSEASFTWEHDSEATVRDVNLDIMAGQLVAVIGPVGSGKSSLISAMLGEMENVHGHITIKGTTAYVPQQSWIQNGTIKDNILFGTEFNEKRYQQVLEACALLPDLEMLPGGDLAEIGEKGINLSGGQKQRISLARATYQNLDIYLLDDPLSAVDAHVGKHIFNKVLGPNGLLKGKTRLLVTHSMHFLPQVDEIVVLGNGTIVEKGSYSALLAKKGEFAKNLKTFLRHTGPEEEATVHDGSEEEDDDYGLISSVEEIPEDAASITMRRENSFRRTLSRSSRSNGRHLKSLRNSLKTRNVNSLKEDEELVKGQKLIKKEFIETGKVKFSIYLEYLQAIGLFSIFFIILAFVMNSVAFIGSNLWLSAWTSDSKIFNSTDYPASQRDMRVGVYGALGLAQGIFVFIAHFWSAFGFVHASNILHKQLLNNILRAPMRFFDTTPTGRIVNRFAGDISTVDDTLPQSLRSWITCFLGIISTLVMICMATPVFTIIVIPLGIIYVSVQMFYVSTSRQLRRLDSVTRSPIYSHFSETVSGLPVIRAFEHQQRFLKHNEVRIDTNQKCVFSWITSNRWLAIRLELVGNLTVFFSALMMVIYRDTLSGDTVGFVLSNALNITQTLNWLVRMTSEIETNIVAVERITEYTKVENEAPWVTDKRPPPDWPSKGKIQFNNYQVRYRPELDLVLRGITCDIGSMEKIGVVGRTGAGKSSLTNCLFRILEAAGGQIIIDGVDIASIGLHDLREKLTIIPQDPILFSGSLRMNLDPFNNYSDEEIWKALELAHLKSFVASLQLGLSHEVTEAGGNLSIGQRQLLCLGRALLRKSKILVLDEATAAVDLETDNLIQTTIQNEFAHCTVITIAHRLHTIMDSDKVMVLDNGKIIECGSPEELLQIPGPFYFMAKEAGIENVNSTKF
ATP-binding cassette sub-family C member 3, sequence (O15438 whole entry, the tested form may be a part): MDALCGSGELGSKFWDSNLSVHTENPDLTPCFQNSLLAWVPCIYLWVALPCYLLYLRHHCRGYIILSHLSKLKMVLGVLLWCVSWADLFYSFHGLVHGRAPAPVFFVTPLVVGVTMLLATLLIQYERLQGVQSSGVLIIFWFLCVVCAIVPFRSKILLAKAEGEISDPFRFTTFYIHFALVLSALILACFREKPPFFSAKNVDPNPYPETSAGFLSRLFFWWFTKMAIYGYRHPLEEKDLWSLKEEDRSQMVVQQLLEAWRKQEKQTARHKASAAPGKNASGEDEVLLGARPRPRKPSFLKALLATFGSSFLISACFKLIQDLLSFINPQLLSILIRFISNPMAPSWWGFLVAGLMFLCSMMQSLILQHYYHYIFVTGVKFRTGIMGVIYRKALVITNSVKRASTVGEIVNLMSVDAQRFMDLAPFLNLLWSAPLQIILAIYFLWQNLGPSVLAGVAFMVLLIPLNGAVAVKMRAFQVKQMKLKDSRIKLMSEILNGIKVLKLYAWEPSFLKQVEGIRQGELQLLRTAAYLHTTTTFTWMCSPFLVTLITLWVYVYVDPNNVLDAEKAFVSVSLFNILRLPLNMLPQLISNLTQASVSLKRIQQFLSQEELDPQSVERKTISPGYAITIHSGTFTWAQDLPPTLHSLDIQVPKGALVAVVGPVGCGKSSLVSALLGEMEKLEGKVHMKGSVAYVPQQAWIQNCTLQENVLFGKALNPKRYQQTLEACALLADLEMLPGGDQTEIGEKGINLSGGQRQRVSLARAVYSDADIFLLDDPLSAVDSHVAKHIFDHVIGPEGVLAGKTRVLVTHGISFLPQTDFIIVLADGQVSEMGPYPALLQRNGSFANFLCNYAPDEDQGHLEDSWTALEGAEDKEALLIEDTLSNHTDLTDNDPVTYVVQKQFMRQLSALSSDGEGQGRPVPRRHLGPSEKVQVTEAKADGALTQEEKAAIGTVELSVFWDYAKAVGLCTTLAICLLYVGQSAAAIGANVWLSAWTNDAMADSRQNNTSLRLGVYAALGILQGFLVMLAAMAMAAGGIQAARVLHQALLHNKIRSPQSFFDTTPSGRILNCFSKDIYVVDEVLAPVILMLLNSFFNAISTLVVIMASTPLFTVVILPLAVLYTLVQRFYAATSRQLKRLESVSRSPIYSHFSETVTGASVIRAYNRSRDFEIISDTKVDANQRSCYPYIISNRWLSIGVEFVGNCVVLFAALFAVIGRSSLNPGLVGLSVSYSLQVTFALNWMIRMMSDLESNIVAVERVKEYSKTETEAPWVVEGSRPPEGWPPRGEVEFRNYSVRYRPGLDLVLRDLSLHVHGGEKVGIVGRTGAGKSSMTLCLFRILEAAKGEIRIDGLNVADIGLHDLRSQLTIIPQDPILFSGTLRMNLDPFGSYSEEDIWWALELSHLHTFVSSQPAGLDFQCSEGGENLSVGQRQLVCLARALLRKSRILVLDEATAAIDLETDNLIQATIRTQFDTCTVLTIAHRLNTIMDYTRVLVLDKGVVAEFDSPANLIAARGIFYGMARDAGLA

| IC50 [1] [µM] | Css (Homo sapiens) [µM] | IC50 [2] [µM] | IC50 [3] [µM] | AUC at 1 h [4] [µM·h] | AUC at 24 h (clinical) [µM·h] | concentration at 24 h [5] [µM] | concentration at 24 h [9] [µM] | AUC at 24 h [10] [µM·h] | Structure (SMILES) | IC50 (Bile salt export pump) [µM] | concentration at 8 h [6] [µM] | AUC at 8 h [7] [µM·h] | Ratio [8] | Ratio [11] | Ratio [12] | AUC at 8 h [13] [µM·h] | concentration at 8 h [14] [µM] |
| --- | --- | --- | --- | --- | --- | --- | --- | --- | --- | --- | --- | --- | --- | --- | --- | --- | --- |
| > 133 | 14.759 | > 133 | > 133 | 14.8 | – | – | – | – | CC(=O)O[C@H]1C(=O)[C@@]2(C)[C@H]([C@H](OC(=O)c3ccccc3)[C@]3(O)C[C@H](OC(=O)[C@H](O)[C@@H](NC(=O)c4ccccc4)c4ccccc4)C(C)=C1C3(C)C)[C@]1(OC(C)=O)CO[C@@H]1C[C@@H]2O [PACLITAXEL] | – | – | – | – | – | – | – | – |
| > 133 | – | > 133 | > 133 | – | 357 | 14.9 | – | – | CC(C)OC(=O)C(C)(C)Oc1ccc(C(=O)c2ccc(Cl)cc2)cc1 [FENOFIBRATE] | – | – | – | – | – | – | – | – |
| > 133 | – | > 133 | > 133 | – | – | – | 27.1 | 649 | CCOC(=O)C(C)(C)Oc1ccc(Cl)cc1 [CLOFIBRATE] | 71 | – | – | – | 0.381 | – | – | – |

| Structure (SMILES) | IC50 [1] [µM] | Css (Homo sapiens) [µM] | IC50 [2] [µM] | IC50 [3] [µM] | AUC at 1 h [4] [µM·h] | AUC at 24 h (clinical) [µM·h] | concentration at 24 h [5] [µM] | concentration at 24 h [9] [µM] | AUC at 24 h [10] [µM·h] | IC50 (Bile salt export pump) [µM] | concentration at 8 h [6] [µM] | AUC at 8 h [7] [µM·h] | Ratio [8] | Ratio [11] | Ratio [12] | AUC at 8 h [13] [µM·h] | concentration at 8 h [14] [µM] |
| --- | --- | --- | --- | --- | --- | --- | --- | --- | --- | --- | --- | --- | --- | --- | --- | --- | --- |
| CC[C@@H]([C@H](C)O)n1ncn(-c2ccc(N3CCN(c4ccc(OC[C@@H]5CO[C@@](Cn6cncn6)(c6ccc(F)cc6F)C5)cc4)CC3)cc2)c1=O [POSACONAZOLE] | > 133 | – | > 133 | > 133 | – | – | – | – | – | 8.1 | 4.41 | 35.2 | 0.544 | – | – | – | – |
| CC(=O)O.C[C@@H](O)[C@@H]1NC(=O)[C@H](CCCCN)NC(=O)[C@@H](Cc2c[nH]c3ccccc23)NC(=O)[C@H](Cc2ccccc2)NC(=O)[C@@H](NC(=O)[C@H](N)Cc2ccccc2)CSSC[C@@H](C(=O)N[C@H](CO)[C@@H](C)O)NC1=O [OCTREOTIDE ACETATE] | > 133 | – | > 133 | > 133 | – | – | – | – | – | 9.34 | – | – | – | – | 0.565 | 42.2 | 5.28 |

— ChEMBL document CHEMBL4028801, “A multifactorial approach to hepatobiliary transporter assessment enables improved therapeutic compound development” (Toxicol Sci, 2013)
